Data from US20250270212A1, “CHIMERIC COMPOUNDS USEFUL IN TREATING DISEASES” (Padarn Therapeutics, Inc., priority 2021, published 2025).
Read-outs that look alike come from different tables or passages of the source.

Experiments:
recombinant Wee1 protein = recombinant Wee1 protein (Homo sapiens (Human), UniProt P30291); assay: Wee1 enzymatic activity inhibition, ADP-Glo luminescence assay; assay type: biochemical; conditions: recombinant Wee1, PolyE4Y1 substrate, 1 h room temperature
Experimental: Example A. Primary Assay Used to Determine Potency of Wee1 Enzymatic Activity Inhibition
Compound activity was determined using recombinant Wee1 protein (BPS, Cat #40412) and PolyE4Y1 Substrate (Poly(Glu,Tyr) sodium salt, Sigma, Cat #P0275-25MG) in an in vitro enzymatic reaction. The enzymatic assay used to determine activity was a Luminescence assay using a Microplate Reader (BMG, ClarioStar Plus). The enzymatic reaction was carried out in assay buffer (40 mM TRIS-HCl pH 7.4-7.6, 20 mM MgCl2, 0.05 mM DTT, 0.1 mg/ml BSA, 5 mM MnCl2). The compounds were dispensed on a 384 well Diamond Well Plate (Axigen, Cat #P-384-120SQ-C-S) using the Biomek FX liquid handling system at 100× solutions of compounds in DMSO. 2×Wee1-PolyE4Y1 mix (final concentration 0.85 ng/μl of Wee1 and 0.2 μg/μl of PolyE4Y1) was prepared in 1× Assay buffer and 5.5 μl of mixture per well was added into 384w white Reaction plate with NBS (Corning, Cat #4513). 5.5 μl of PolyE4Y1 substrate w/o Wee1 in 1× buffer was used for negative control. Plates were centrifuged for 1 min at 100 g. Next step the Compounds were added to Reaction plate using Biomek station via following steps: 1 μl of 100× compounds (in DMSO) were mixed thoroughly with 49 μl of 2×10 μM ATP in Assay Buffer, then 5.5 μl of this mixture was added to Reaction plate with 5.5 μl of Wee1-PolyE4Y1 mix. Plates were centrifuged for 1 min at 100 g and incubated for 1 h at room temperature. Next 3 μL of ADP-Glo reagent (Promega, ADP-Glo™ Kinase Assay, Cat #V9102) per well was added. Plates were incubated for 30 minutes at room temperature. Then 6 μL of Kinase detection reagent (Promega, ADP-Glo™ Kinase Assay, Cat #V9102) per well was added and the Luminescence was measured using Microplate Reader. The % inhibition was then used to calculate the IC50 values. The IC50 values are shown in Table A, wherein “A” corresponds to IC50<0.01 μM, “B” corresponds to 0.01 μM≤IC50<0.1 μM, “C” 0.1 μM≤IC50<1 μM, and “D” corresponds to […].

[1] = target: recombinant PARP1 (AA662-1014) protein (Homo sapiens (Human), UniProt P09874); assay: Tracer displacement fluorescence polarization assay; conditions: displacement of AlexaFluor488 tracer from NAD+-binding site, PARP1 25 nM
recombinant PARP1 (AA662-1014) protein, sequence (P09874 662-1014): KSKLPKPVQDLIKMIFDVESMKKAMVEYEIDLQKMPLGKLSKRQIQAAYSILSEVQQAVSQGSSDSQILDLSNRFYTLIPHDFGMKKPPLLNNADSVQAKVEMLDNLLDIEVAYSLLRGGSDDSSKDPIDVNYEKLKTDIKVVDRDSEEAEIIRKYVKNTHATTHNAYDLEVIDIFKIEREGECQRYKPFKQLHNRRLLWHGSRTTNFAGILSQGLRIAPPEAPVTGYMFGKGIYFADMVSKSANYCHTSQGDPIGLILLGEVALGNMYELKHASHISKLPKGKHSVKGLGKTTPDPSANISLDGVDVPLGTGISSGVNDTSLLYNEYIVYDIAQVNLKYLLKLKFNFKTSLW
Experimental: Example B. Tracer Displacement Fluorescence Polarization Assays
Displacement of AlexaFlour488 marked tracer from the NAD+-binding site of recombinant PARP1 (AA662-1014) protein (OriGene, Cat #: AR09368PU-L) was measured in vitro using Fluorescence polarization assay. The reaction was carried out in assay buffer (50 mM TRIS-HCl pH 7.4-7.8, 150 mM NaCl, 10 mM MgCl2, 0.001% Triton-X). 2×PARP1 (final concentration 25 nM) was diluted in 1× Assay buffer and 10 μl of the solution per well was added into 384-well Black Non-Treated Reaction plate (Corning, Cat #4511). Plates were centrifuged for 1 min at 200 g. The compounds were prepared in a 384-well Diamond Well Plate (Axygen, Cat #P-384-120SQ-C-S) as 400× solutions in DMSO and were transferred into Reaction plate using the Biomek FX liquid handling system with intermediate dilution down to 10× working solution in assay buffer in a separate 384-well Diamond Well Plate (Axygen, Cat #P-384-120SQ-C-S) (2 μl per well). Plates were centrifuged for 1 min at 200 g and incubated for 15 min at room temperature in the dark. Then 8 μL per well of 2.5× Tracer AlexaFluor488 (final concentration 1 nM) diluted in 1× Assay buffer was added into Reaction plate. 1× Assay buffer was used to make blank samples for instrument calculations. Plates were incubated for 30 minutes at room temperature in the dark. Fluorescence polarization was measured using Microplate Reader (BMG, ClarioStar Plus). The % tracer displacement was used to calculate the IC50 values. The IC50 values are shown in Table A, wherein “A” corresponds to IC50<0.01 μM, “B” corresponds to 0.01 μM≤IC50<0.1 μM, “C” 0.1 μM≤IC50<[…], and “D” corresponds to […].

MDA-MB-231 = assay: Cellular growth inhibition assay (CellTiter-Glo); assay type: cell-based; conditions: Homo sapiens
Experimental: Example E. Cellular Growth Inhibition Assay
HEK293 (Institute of Cytology Russian Academy of Science), MDA-MB-231 (ATCC, CRM-HTB-26), HCC1395 (ATCC, CRL-2324), HCC1937 (ATCC, CRL-2336), UWB1.289+BRCA1 (ATCC, CRL-2946) were seeded at a density of 500 cells per well in a 384-well clear bottom plate (Greiner Cat #781090) in 45 μl total volume of DMEM (PanEco, Cat #C420) or RPMI (PanEco, Cat #C330) or RPMI/MEBM (Lonza, Cat #CC-3151+CC-4136) with 10% FBS (HyClone, Cat #SV30160.03). Cells were allowed to adhere overnight at 370 C, 5% CO2. 500× compounds solutions in DMSO (Sigma Cat #D2650) were prepared into Cmpnds plate (Diamond Well Plate, Axigen, Cat #P-384-120SQ-C-S) and DMSO only control was included. 1 μl of 500× compounds (Cmpnds plate) was added to 49 μl of culture medium into Dilution plate (Diamond Well Plate, Axigen, Cat #P-384-120SQ-C-S), mixed and then 5 μl of 10× compounds solutions were transferred to cells followed by centrifugation at 100 g for 1 min. Final DMSO concentration was 0.2%. After 3 days of incubation, 10 μl of 1× compounds were added to cells. […]

[2] = 120 h, MDA-MB-231, 5 days, read-out: MDA-MB-231 EC50 (μM) 5 days
[3] = 168 h, MDA-MB-231, 7 days, read-out: MDA-MB-231 EC50 (μM) 7 days
[4] = 240 h, MDA-MB-231, 10 days, read-out: MDA-MB-231 EC50 (μM) 10 days

recombinant Wee1 protein, sequence (P30291 whole entry): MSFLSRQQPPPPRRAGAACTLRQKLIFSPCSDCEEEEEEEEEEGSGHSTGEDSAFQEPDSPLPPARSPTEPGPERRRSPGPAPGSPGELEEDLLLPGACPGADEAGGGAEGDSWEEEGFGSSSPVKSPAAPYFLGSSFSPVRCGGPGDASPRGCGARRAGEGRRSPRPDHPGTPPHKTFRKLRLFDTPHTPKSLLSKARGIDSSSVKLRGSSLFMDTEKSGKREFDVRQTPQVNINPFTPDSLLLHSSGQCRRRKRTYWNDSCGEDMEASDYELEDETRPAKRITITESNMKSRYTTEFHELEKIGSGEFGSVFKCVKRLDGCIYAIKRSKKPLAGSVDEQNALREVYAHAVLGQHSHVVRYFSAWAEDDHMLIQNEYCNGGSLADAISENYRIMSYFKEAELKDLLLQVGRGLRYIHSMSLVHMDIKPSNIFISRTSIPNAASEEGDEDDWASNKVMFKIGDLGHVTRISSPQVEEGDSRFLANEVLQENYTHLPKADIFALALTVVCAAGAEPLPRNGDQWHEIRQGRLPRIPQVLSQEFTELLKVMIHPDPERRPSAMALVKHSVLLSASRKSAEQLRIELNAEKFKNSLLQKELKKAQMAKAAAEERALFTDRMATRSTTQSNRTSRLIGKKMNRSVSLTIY

| Structure (SMILES) | EC50 (recombinant Wee1 protein) [nM] | EC50 [1] [nM] | EC50 (MDA-MB-231; [2]) [µM] | EC50 (MDA-MB-231; [3]) [µM] | EC50 (MDA-MB-231; [4]) [µM] |
| --- | --- | --- | --- | --- | --- |
| C=CCn1c(=O)c2cnc(Nc3ccc(N4CCN(C(=O)c5cc(Cc6n[nH]c(=O)c7ccccc67)ccc5F)CC4)cc3)nc2n1-c1ccccn1 [Compound 10, 4-{3-[(4-{4-[(2-Allyl-3-oxo-1-pyridin-2-yl-2,3-dihydro-1H-pyrazolo[3,4-d]pyrimidin-6-yl)amino]phenyl}piperazin-1-yl)carbonyl]-4-fluorobenzyl}phthalazin-1(2H)-one] | 10 to 100 | < 10 | 4.89 | 2.59 | 1.49 |
| C=CCn1c(=O)c2cnc(Nc3ccc(N4CCN(C(=O)c5cc(Cc6n[nH]c(=O)c7ccccc67)ccc5F)CC4)cc3)nc2n1-c1cccc(C(C)(C)O)c1 | – | < 10 | 0.69 | 0.66 | 0.11 |
| Cn1c(=O)c2cnc(Nc3ccc(N4CCN(C(=O)c5cc(Cn6c(=O)[nH]c(=O)c7c(F)cccc76)ccc5F)CC4)cc3)nc2n1-c1ncccn1 [Compound 29, 5-Fluoro-1-{4-fluoro-3-[(4-{4-[(2-methyl-3-oxo-1-pyrimidin-2-yl-2,3-dihydro-1H-pyrazolo[3,4-d]pyrimidin-6-yl)amino]phenyl}piperazin-1-yl)carbonyl]benzyl}quinazoline-2,4(1H,3H)-dione] | 100 to 1000 | < 10 | – | – | – |
| O=C(c1cc(Cc2n[nH]c(=O)c3ccccc23)ccc1F)N1CCN(c2ccc(Nc3ncc4c(=O)n(CCO)n(-c5ccccn5)c4n3)cc2)CC1 [Compound 15, 4-(4-Fluoro-3-{[4-(4-{[2-(2-hydroxyethyl)-3-oxo-1-pyridin-2-yl-2,3-dihydro-1H-pyrazolo[3,4-d]pyrimidin-6-yl]amino}phenyl)piperazin-1-yl]carbonyl}benzyl)phthalazin-1(2H)-one] | 100 to 1000 | < 10 | – | – | – |
| COCCn1c(=O)c2cnc(Nc3ccc(N4CCN(C(=O)c5cc(Cc6n[nH]c(=O)c7ccccc67)ccc5F)CC4)cc3)nc2n1-c1ccccn1 [Compound 9, 4-(4-Fluoro-3-{[4-(4-{[2-(2-methoxyethyl)-3-oxo-1-pyridin-2-yl-2,3-dihydro-1H-pyrazolo[3,4-d]pyrimidin-6-yl]amino}phenyl)piperazin-1-yl]carbonyl}benzyl)phthalazin-1(2H)-one] | 10 to 100 | < 10 | – | – | – |
| Cn1c(=O)c2cnc(Nc3ccc(N4CCN(Cc5ccc(-c6[nH]c7cc(F)cc8c7c6CCNC8=O)cc5)CC4)cc3)nc2n1-c1cccc(C(C)(C)O)n1 [Compound 40, 8-Fluoro-2-[4-({4-[4-({1-[6-(1-hydroxy-1-methylethyl)pyridin-2-yl]-2-methyl-3-oxo-2,3-dihydro-1H-pyrazolo[3,4-d]pyrimidin-6-yl}amino)phenyl]piperazin-1-yl}methyl)phenyl]-1,3,4,5-tetrahydro-6H-azepino[5,4,3-cd]indol-6-one] | 10 to 100 | 10 to 100 | – | – | – |
| COCCn1c(=O)c2cnc(Nc3ccc(N4CCN(C(=O)c5cc(Cc6n[nH]c(=O)c7ccccc67)ccc5F)CC4)cc3)nc2n1-c1cccc(C(C)(C)O)n1 [Compound 13, 4-(4-Fluoro-3-{[4-(4-{[1-[6-(1-hydroxy-1-methylethyl)pyridin-2-yl]-2-(2-methoxyethyl)-3-oxo-2,3-dihydro-1H-pyrazolo[3,4-d]pyrimidin-6-yl]amino}phenyl)piperazin-1-yl]carbonyl}benzyl)phthalazin-1(2H)-one] | 10 to 100 | < 10 | – | – | – |
| Cn1c2nc(Nc3ccc(N4CCC(n5cc6cccc(C(N)=O)c6n5)CC4)cc3)ncc2c(=O)n1-c1ccccn1 [Compound 86] | 100 to 1000 | 10 to 100 | – | – | – |
| C=CCn1c(=O)c2cnc(Nc3ccc(N4CCN(C(=O)c5cc(Cn6c(=O)[nH]c(=O)c7c(F)cccc76)ccc5F)CC4)cc3)nc2n1-c1cccc(C(C)(C)O)n1 [Compound 16, 1-[[3-[4-[4-[[2-Allyl-1-[6-(1-hydroxy-1-methyl-ethyl)-2-pyridyl]-3-oxo-pyrazolo[3,4-d]pyrimidin-6-yl]amino]phenyl]piperazine-1-carbonyl]-4-fluoro-phenyl]methyl]-5-fluoro-quinazoline-2,4-dione] | – | < 10 | 0.96 | 0.8 | 0.18 |
| Cn1c2nc(Nc3ccc(N4CCCC(c5nc6cccc(C(N)=O)c6[nH]5)C4)cc3)ncc2c(=O)n1-c1ccccn1 (centres unmarked) [Compound 97] | 100 to 1000 | 10 to 100 | – | – | – |
| COCCn1c(=O)c2cnc(Nc3ccc(N4CCN(Cc5ccc(-c6[nH]c7cc(F)cc8c7c6CCNC8=O)cc5)CC4)cc3)nc2n1-c1ccccn1 [Compound 38, 8-Fluoro-2-(4-{[4-(4-{[2-(2-methoxyethyl)-3-oxo-1-pyridin-2-yl-2,3-dihydro-1H-pyrazolo[3,4-d]pyrimidin-6-yl]amino}phenyl)piperazin-1-yl]methyl}phenyl)-1,3,4,5-tetrahydro-6H-azepino[5,4,3-cd]indol-6-one] | 100 to 1000 | 10 to 100 | – | – | – |
| Cn1c(=O)c2cnc(Nc3ccc(N4CCC(n5cc6cccc(C(N)=O)c6n5)CC4)cc3)nc2n1-c1ccccn1 [Compound 83] | 10 to 100 | 10 to 100 | – | – | – |
| C=CCn1c(=O)c2cnc(Nc3ccc(N4CCN(Cc5cc(Cc6n[nH]c(=O)c7ccccc67)ccc5F)CC4)cc3)nc2n1-c1cccc(C(C)(C)O)n1 [Compound 14, 4-[3-({4-[4-({2-Allyl-1-[6-(1-hydroxy-1-methylethyl)pyridin-2-yl]-3-oxo-2,3-dihydro-1H-pyrazolo[3,4-d]pyrimidin-6-yl}amino)phenyl]piperazin-1-yl}methyl)-4-fluorobenzyl]phthalazin-1(2H)-one] | 10 to 100 | 100 to 1000 | – | – | – |
| Cn1c(=O)c2cnc(Nc3ccc(N4CCCC(c5nc6cccc(C(N)=O)c6[nH]5)C4)cc3)nc2n1-c1ccccn1 (centres unmarked) [Compound 96, 2-[1-[4-[[2-methyl-3-oxo-1-(2-pyridyl)pyrazolo[3,4-d]pyrimidin-6-yl]amino]phenyl]-3-piperidyl]-3H-benzimidazole-4-carboxamide] | – | 10 to 100 | 2.77 | – | – |
